Measured values from US20100216827A1 (Metabolex, Inc., priority 2008, published 2010).

Experiments:
C57BL/6J mice [1] = assay: Oral glucose tolerance test (OGTT); type: in vivo; settings: 6 h fasted male C57BL/6J mice, 3 g/kg oral glucose, vs vehicle
Protocol: (§1) 8-10 week old male C57BL/6J mice (Harlan) were maintained on regular chow diet from Harlan (2018 Teklad Global). For the oral glucose tolerance test (OGTT), on the day of the experiment mice were fasted for 6 hours, then randomized into groups (n=10-15) to receive the tested GPR120 agonist at doses ranging from 30 mg/kg to 100 mg/kg or the vehicle (1% CMC, 2% TWEEN 80). For the intra-peritoneal glucose tolerance test (IPGTT), the mice were fasted for overnight, then randomized into groups (n=10-15) to receive the tested GPR120 agonist at doses ranging from 30 mg/kg to 100 mg/kg or the vehicle (1% CMC, 2% TWEEN 80). Compounds were delivered orally via gavage at 10 mL/kg. Blood glucose levels were measured by glucometer (Ascensia Elite XL, Bayer) at time −30 minutes before administration of compound. Blood glucose was measured again after 30 minutes (at time 0), and then the mice were dosed orally with 3 g/kg glucose at 10 mL/kg or were dosed intraperitoneally with 2 g/kg glucose at 10 mL/kg. Blood glucose measurements were taken 20, 40, 60, 90 and 120 minutes after glucose administration, by glucometer (Ascensia Elite XL, Bayer).
(§2) Glucose levels were plotted against time, and the incremental area under the curve (AUC) of the glucose excursion was determined from time 0 using Graphpad Prism 5.01. Outliers were excluded using Tukey's box plot outlier test, and statistical significance of differences in AUC of compound treatment compared to vehicle was determined by non-parametric Kruskal-Wallis test with Dunn's post test.
The compounds were tested at 100 mg/kg and the levels of blood glucose were determined in the presence and absence of the tested compounds. The percentage of glucose or intra-peritoneal reduction is reported as a percent reduction in AUC (area under the curve). The tested compound was selected as examples from the exemplified compounds.

C57BL/6J mice [2] = assay: Intra-peritoneal glucose tolerance test (IPGTT); type: in vivo; settings: 100 mg/kg oral gavage, overnight fasted male C57BL/6J mice, 2 g/kg glucose i.p., vs vehicle
Protocol: as §1, with “Blood glucose measurements were taken 20, 40, 60, 90 and 120 minutes after glucose administration, by glucometer (Ascensia Elite XL, Bayer).” left out
as §2, with “test. […]” for “test.”

human GPR120 = molecular target: T1, human GPR120 (Homo sapiens, UniProt Q5NUL3); assay: Intracellular Ca2+ (FLIPR Calcium 4, Flexstation) assay in human GPR120 stable HEK293 cell line coexpressing Gqi5; type: cell-based; settings: for % Activity at 5 μM: 5 μM compound compared to the maximal activity of GW9508 at 6.7 μM (100%); for EC50: human GPR120 stably expressing cells, 8 concentrations 0.00001 to 20 μM, read-out: EC50 ≦ 1 μM
T1 construct: host or cells: HEK293 cells coexpressing Gqi5
T1 sequence (Q5NUL3 1-361): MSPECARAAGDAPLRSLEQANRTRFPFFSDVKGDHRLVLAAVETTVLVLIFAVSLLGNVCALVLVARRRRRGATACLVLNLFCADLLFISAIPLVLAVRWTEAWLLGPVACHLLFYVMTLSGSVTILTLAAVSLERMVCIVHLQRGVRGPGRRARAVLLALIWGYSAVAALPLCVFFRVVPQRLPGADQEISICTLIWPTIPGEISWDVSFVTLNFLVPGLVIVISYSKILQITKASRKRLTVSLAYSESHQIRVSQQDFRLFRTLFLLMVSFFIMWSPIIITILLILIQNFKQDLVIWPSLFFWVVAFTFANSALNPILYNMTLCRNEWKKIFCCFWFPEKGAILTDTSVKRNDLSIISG
Summary of the method: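 Calcium 4 dye-loaded HEK293 cells expressing N-terminally Flag-tagged human GPR120 with Gqi5 (HBSS/20 mM HEPES, pH 7.4; 50 min, 37 °C). Fluorescence (485/525 nm) read for 90 s after addition of compound at 8 concentrations, 0.00001–20 μM; EC50 from Max−Min change. % activity at 5 μM versus maximal GW9508 response (6.7 μM).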

Cc1cc(COc2c(F)cc(C[C@@H](C)C(=O)O)cc2F)n(-c2ccc(Cl)cc2)n1 [Example 43, (R)-3-(4-((1-(4-chlorophenyl)-3-methyl-1H-pyrazol-5-yl)methoxy)-3,5-difluorophenyl)-2-methylpropanoic acid]
% reduction in OGTT AUC (C57BL/6J mice [1]; 30 mg/kg oral gavage): 20%
% reduction in OGTT AUC (C57BL/6J mice [1]; 100 mg/kg oral gavage): 40%

Cc1cc(COc2c(F)cc(C[C@H](C)C(=O)O)cc2F)n(-c2ccc(Cl)cc2)n1 [Example 44, (S)-3-(4-((1-(4-chlorophenyl)-3-methyl-1H-pyrazol-5-yl)methoxy)-3,5-difluorophenyl)-2-methylpropanoic acid]
% reduction in OGTT AUC (C57BL/6J mice [1]; 30 mg/kg oral gavage): 33%
% reduction in OGTT AUC (C57BL/6J mice [1]; 100 mg/kg oral gavage): 39%

Cc1cc(COc2c(F)cc(CC(C)C(=O)O)cc2F)n(-c2ccc(Cl)cc2)n1 (centres unmarked) [Example 36, 3-(4-((1-(4-chlorophenyl)-3-methyl-1H-pyrazol-5-yl)methoxy)-3,5-difluorophenyl)-2-methylpropanoic acid]
% reduction in IPGTT AUC (C57BL/6J mice [2]): 24%
% reduction in OGTT AUC (C57BL/6J mice [1]; 30 mg/kg oral gavage): 15%
% reduction in OGTT AUC (C57BL/6J mice [1]; 100 mg/kg oral gavage): 45.2%
% Activity at 5 μM (human GPR120): 96%
EC50 (human GPR120): ≤ 1000 nM

CC(Cc1cc(F)c(OCc2c(C(F)(F)F)nn(C)c2Oc2ccc(Cl)cc2)c(F)c1)C(=O)O (centres unmarked) [Example 115, 3-(4-((5-(4-Chlorophenoxy)-1-methyl-3-(trifluoromethyl)-1H-pyrazol-4-yl)methoxy)-3,5-difluorophenyl)-2-methylpropanoic Acid]
% Activity at 5 μM (human GPR120): 118%
EC50 (human GPR120): ≤ 1000 nM
